Measurements taken from US20110245323A1, “RIG-Like Helicase Innate Immunity Inhibits VEGF-Induced Tissue Responses” (Yale University, priority 2006, published 2011).
Entries after “also recorded” stand apart in the source; their conditions may differ.

How the values were obtained:
Assay type in all cases: in vivo, mouse
[1] = tested on: CC10-rtTA-VEGF165 transgenic mice; assay: Lung tissue inflammation, histologic analysis; settings: Tg+ mice, pretreatment, vs vehicle
Procedure: The lungs were removed en bloc as described elsewhere herein, inflated at 25 cm pressure with PBS containing 0.5% low melting point agarose gel, fixed in Streck solution (Streck Laboratories, La Vista, Nebr.), embedded in paraffin, sectioned and stained. Hematoxylin and eosin and PAS stains were performed in the Research Histology Laboratory of the Department of Pathology at the Yale University School of Medicine. Pulmonary hemorrhage was evaluated by quantitating BAL red blood cell number with a Coulter counter (Beckman Coulter).

[2] = tested on: Erk, FAK, Akt, and eNOS signaling pathways; assay: VEGF signaling in lung (eNOS/iNOS mRNA, immunoblot of Erk, FAK, Akt, eNOS); settings: Tg+ mice lung
Procedure: These experiments used antibodies specific for Akt or phosphorylated (p) Akt (Danvers Mass.), FAK or pFAK (BioSource, International; Camarillo Calif.), PI3K or pPI3K (Cell Signalling), eNOS and iNOS (Santa Cruz BioTechnology, Santa Cruz Calif., USA) and MUC-5AC (NeoMarkers; Fremont). Western blot analysis was performed using standard protocols and visualized using the ECL system (Amersham Biosciences; Piscataway, N.J.).
Total RNA was isolated from fresh mouse lung with TRIzol reagent (Invitrogen; Carlsbad, Calif.) following the manufacturer's instructions. Quantification of mouse lung mRNA was performed by quantitative real-time PCR using ABI 7500 fast real-time PCR system (Applied Biosystems; Foster City, Calif.) and power SYBR green PCR master mix kit with appropriately specific primers (Applied Biosystems; Foster City, Calif.).
Lung lysates were subjected to immunoblot analysis using antibodies against phosphorylated (p) p-Erk, total Erk, p-Fak; total FAK; p-Akt, total Akt, peNOS and total eNOS (Cell Signaling, Beverly Mass.).

[3] = tested on: CC10-rtTA-VEGF165 transgenic mice; assay: BAL inflammatory cell recovery, VEGF-induced inflammation
Procedure: (§1) The CC10-rtTA-VEGF165 transgenic mice used in this study were generated and used as described previously (Lee et al., 2004, Nature Medicine 10:1095-103), which reference is incorporated herein in its entirety. These animals were housed under barrier conditions in the animal facility at Yale University School of Medicine. In these experiments 6-8 week old transgenic (Tg+) animals and their transgene negative littermate controls (Tg−) were randomized to receive water with doxycycline (dox) (0.5 mg/ml) or normal water. Two weeks later they were sacrificed and the VEGF-induced phenotype was evaluated as described below (Lee et al., 2004, Nature Medicine 10:1095-103).
(§2) To define the effects of these agents on the tissue responses induced by VEGF, two experimental procedures were used. In the first, a pretreatment protocol was used. In these experiments the noted innate immunity agonist ([…] unless otherwise indicated) or its vehicle control (PBS) were administered intranasally and aspirated into the lungs of randomized Tg+ and Tg− mice starting one day before the Dox water treatment. The doses were administered to the mice every other day during the 2 week doxyxycline (dox) treatment interval.
(§3) To determine if the innate immunity agonists altered established VEGF-induced tissue responses, a “post treatment” protocol was used in selected experiments. In these experiments the innate immunity agonist was administered 2 days or 14 days after the doxycycline and VEGF-induced responses were evaluated 2 weeks later.
(§4) To define the effects of Poly(I:C) a number of protocols were employed. In most experiments, a pretreatment-2 week protocol was employed. In these experiments, WT and Tg+ mice were treated with Poly(I:C) (30 μg in 50 lambda unless otherwise indicated; Amersham Biosciences, N.J.) or vehicle control via nasal aspiration and transgene activation was accomplished via the administration of dox (0.5 mg/ml) in the animal's drinking water 24 hours later. The Poly(I:C) was administered every other day and the dox was administered continuously for up to 2 weeks.
(§5) Lastly, in selected experiments post-transgene activation protocols were employed. In these experiments dox was administered for 2 days or 2 weeks. The Poly(I:C) was then administered via intranasal aspiration every other day for 2 weeks as disclosed elsewhere herein. In selected pre-treatment and post-transgene activation experiments, unmethylated CpG (CpG-B) (Keck Center, Yale University) was also employed at similar doses. At the end of these intervals, assessments of angiogenesis (anti-CD31 immunohistochemistry), vascular permeability (Evan's blue dye extravasation, wet to dry lung weight measurements, BAL protein concentration), BAL and tissue inflammatory cell infiltration and mucus metaplasia (periodic acid-Schiff (PAS) staining, MUC5AC immunoblotting) were undertaken. In all cases experiments were designed to compare Tg− and Tg+ mice on normal water and Tg− and Tg+ mice on dox water.
Mice were sacrificed using intraperitoneal ketamine/xylazine injection and the trachea was cannulated and perfused with two 0.9 nil aliquots of cold saline. The cellular contents and BAL fluid were separated by centrifugation, the BAL cell number was quantitated and cell differential was assessed. The BAL fluid was stored in aliquots at −80° C.

[4] = tested on: IFNAR1; assay: Poly(I:C) regulation of VEGF responses in IFNAR1 null VEGF Tg+ mice
Excerpt: TLR3^−/−-mice were a gift from Dr. Richard A. Flavell (Yale University), MAVS null mice were a gift from Dr Zijian J. Chen (U of Texas Southwestern) (Sun et al., 2006, Immunity 24:633-642), double stranded RNA-dependent protein kinase null mutant mice (PKR^−/−) were a gift from Dr. Bryan R. G. Williams (Cleveland Clinic Foundation) (Yang et al., 1995, Embo J 14:6095-6106) and IFNAR1 null mice were obtained from Dr. Richard Enelow (Dartmouth). These mice were bred with the VEGF Tg+ mice to generate transgenic mice with wild type (+/+) or null (−/−) TLR3, MAVS, PKR or IFNAR1 loci. Thus, in each given experiment, the effects in transgene negative (Tg−) and transgenic (Tg+) mice with WT and null TLR3, MAVS, PKR or IFNAR1 loci were compared.
To define the effects of Poly(I:C) a number of protocols were employed. In most experiments, a pretreatment-2 week protocol was employed. In these experiments, WT and Tg+ mice were treated with Poly(I:C) (30 μg in 50 lambda unless otherwise indicated; Amersham Biosciences, N.J.) or vehicle control via nasal aspiration and transgene activation was accomplished via the administration of dox (0.5 mg/ml) in the animal's drinking water 24 hours later. The Poly(I:C) was administered every other day and the dox was administered continuously for up to 2 weeks. […]

[5] = tested on: CC10-rtTA-VEGF165 transgenic mice; assay: VEGF-induced pulmonary hemorrhage in BAL fluids; settings: Tg+ mice, pretreatment, vs vehicle
Procedure: as §1, with “10:1095-103). […]” for “10:1095-103).”
Mice were sacrificed using intraperitoneal ketamine/xylazine injection and the trachea was cannulated and perfused with two 0.9 nil aliquots of cold saline. The cellular contents and BAL fluid were separated by centrifugation, the BAL cell number was quantitated and cell differential was assessed. […]
The lungs were removed en bloc as described elsewhere herein, inflated at 25 cm pressure with PBS containing 0.5% low melting point agarose gel, fixed in Streck solution (Streck Laboratories, La Vista, Nebr.), embedded in paraffin, sectioned and stained. […] Pulmonary hemorrhage was evaluated by quantitating BAL red blood cell number with a Coulter counter (Beckman Coulter).

[6] = tested on: CC10-rtTA-VEGF165 transgenic mice; assay: VEGF-induced angiogenesis, anti-CD31 immunohistochemistry and vessel area density; settings: for VEGF-induced angiogenesis (vascular density, appearance, sprouting): pretreatment starting 1 day before dox, vs vehicle
Procedure: as §1, §2, §3, §4
In selected experiments a pretreatment protocol and shorter treatment interval was employed. In these experiments, WT and Tg+ mice were treated with Poly(I:C) (30 μg/mouse/dose in 50 μl) or vehicle control via nasal aspiration and transgene activation was accomplished with dox 24 hours later. The animals were then randomized to not receive or receive one additional dose of Poly(I:C) 24 hours later and dox was administered continuously during this 2 week interval.
as §5

[7] = Tg+ mice, pretreatment, vs vehicle
[8] = pretreatment, highest dose tested

In the case of “polyinosinic-polycytidylic acid [Poly(I:C)]”, the “inflammatory cell accumulation in lung tissues” value [1] is reported as “lower levels of inflammation”, the “VEGF activation/phosphorylation of Erk, FAK, Akt and eNOS” value ([2]; 30 μg pretreatment, 2 weeks) is reported as “significantly decreased” and the “VEGF-induced eNOS and iNOS mRNA accumulation and AKT phosphorylation/activation” value ([2]; p<0.05) is reported as “significant decrease”. The “VEGF-induced inflammation, delayed administration” value ([3]; Tg+ mice, given 2 days (48 hours) or 14 days after transgene activation with dox) was “significant decrease; also recorded: significant regulation”, the “recovery of macrophages, eosinophils and lymphocytes during BAL” value ([3]; Tg+ mice, pretreatment, p<0.05) was “significantly decreased” and the BAL neutrophil accumulation [3, 7] was “increased”. For the same substance, the “total recovery of inflammatory cells during BAL / VEGF-induced inflammation” value [3, 7] was “markedly decreased; also recorded: inhibited”, the “Total cells (×10^4)” value ([3]; VEGF-induced tissue responses, TLR agonist administration, PBS control 50) was 22 ×10^4 and the “lowest dose with significant alterations of VEGF-induced inflammation” value ([3]; pretreatment) was 5 µg. The “dose with maximal regulation of VEGF-induced inflammation” value [3, 8] was 30 µg, the “ability to inhibit VEGF-induced angiogenesis, edema, inflammation and mucin production in Tg+ mice with null mutations of IFNAR1” value ([4]; 30 μg pretreatment, 2 weeks) was “significantly decreased” and the “ability to inhibit Erk, FAK, Akt and eNOS signaling pathways in mice lacking the IFNAR1 receptor” value ([4]; Tg+ mice lung immunoblot) was “significantly decreased”. The “VEGF-induced bleeding / hemorrhage in BAL fluids” value [5] was “significantly decreased”, the “VEGF-induced vascular responses, delayed administration” value ([6]; Tg+ mice, given 2 days (48 hours) or 14 days (2 weeks) after transgene activation with dox) was “significant decrease; also recorded: significant inhibition” and the “VEGF-induced angiogenesis (vascular density, appearance, sprouting)” value ([6]; Tg+ mice) was “inhibited”. The “VEGF-induced angiogenesis (vascular density, appearance, sprouting)” value ([6]; Tg+ mice, listed as poly(I:C)) was “markedly decreased”, the “Vascularity (%)” value ([6]; VEGF-induced tissue responses, TLR agonist administration, PBS control 43) was 28.7% and the “lowest dose with significant inhibition of VEGF-induced angiogenesis” value ([6]; pretreatment) was 5 µg. For the same substance, the “dose with maximal inhibition of VEGF-induced angiogenesis” value [6, 8] was 30 µg and the “vascular density after as little as 1 dose” value ([6]; shorter treatment interval, 1 dose before dox) was “significant decrease”.
